pIC50: −log10 of the molar value.
Columns and labels:
[1] = test system: PANC-1 (human pancreatic carcinoma) cells; assay: Impedance-based viability assay (xCELLigence SP), long treatment; type: cell-based; details: 72 h, read-out: cytotoxicity expressed in IC50, PANC-1
Excerpt: (Gibco®/Invitrogen Corporation, New York, NY, USA).
Data obtained from each experiment represent mathematical averages.

[2] = test system: EBC-1 lung cancer cell line; assay: High-throughput screening, CellTiter-Glo cell viability assay at 100 nM; type: cell-based, human; details: Homo sapiens, EBC-1, HTS, compounds at 100 nM, 72 h, read-out: cytotoxicity expressed in IC50, EBC-1 (results of High throughput screening)
[3] = test system: H2228 lung cancer cell line; assay: as above; type: cell-based, human; details: Homo sapiens, NCI-H2228, HTS, compounds at 100 nM, 72 h, read-out: cytotoxicity expressed in IC50, H2228 (results of High throughput screening)
[4] = test system: Capan-1 (pancreas, adenocarcinoma) cells; assay: Cell viability assay, CellTiter-Glo (Example 21); type: cell-based, human; details: 72 h treatment
Procedure, shortened: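 Capan-1 cells were seeded at 1000 cells/well in flat-bottomed white 96 well plates (BRANDplates®), with density optimized for cell size and growth rate. Following compound treatment, viability was measured with the CellTiter-Glo® luminescent assay (Promega) per the manufacturer's instructions, reading luminescence on a BioTek Synergy 2 Multi-Mode Reader.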

[5] = test system: DU 145 (prostate, carcinoma) cells; assay: Cell viability assay, CellTiter-Glo (Example 21); type: cell-based, human; details: 72 h
Procedure, shortened: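 DU 145 cancer cell viability was assessed with the CellTiter-Glo® luminescent assay (Promega, Madison, WI, USA), following the manufacturer's instructions. Cells were seeded at 1000 cells/well in flat-bottomed white 96 well plates, and after treatment luminescence was read on a BioTek Synergy 2 Multi-Mode Reader.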

[6] = test system: Detroit 562 (pharynx, carcinoma) cells; assay: Cell viability assay, CellTiter-Glo (Example 21); type: cell-based, human; details: 72 h treatment
Procedure, shortened: (§1)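 Seeding density per line: Panc-1 750, FaDu 1000, Detroit 562 and MDA-MB-453 1500 cells/well. Viability after treatment read by CellTiter-Glo luminescence; dose-response curves fitted by four-parameter variable-slope non-linear regression.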

[7] = test system: EBC-1 (lung, squamous cell carcinoma) cells; assay: Cell viability assay, CellTiter-Glo (Example 21); type: cell-based, human; details: 72 h treatment
Procedure, shortened: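 EBC-1 lung squamous cell carcinoma cells were seeded at 1000 cells/well in flat-bottomed white 96 well plates. After compound treatment, viability was measured with the CellTiter-Glo luminescent assay following the manufacturer's instructions, and luminescence was read on a BioTek Synergy 2 Multi-Mode microplate reader.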

[8] = test system: FaDu (pharynx, squamous cell carcinoma) cells; assay: Cell viability assay, CellTiter-Glo (Example 21); type: cell-based, human; details: 72 h treatment
Procedure, shortened: as §1

[9] = test system: LNCaP (prostate, carcinoma) cells; assay: Cell viability assay, CellTiter-Glo (Example 21); type: cell-based, human; details: 72 h
Procedure, shortened: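 LNCaP prostate carcinoma cell viability was assessed with the CellTiter-Glo® luminescent assay (Promega), following the manufacturer's instructions. Cells were seeded at 1500 cells/well into flat-bottomed white 96 well plates, treated, and then luminescence was read on a BioTek Synergy 2 Multi-Mode Reader. Dose-response curves were fitted in GraphPad Prism 8.4.2 by four-parameter variable-slope non-linear regression.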

[10] = test system: MDA-MB-231 (breast, adenocarcinoma) cells; assay: Cell viability assay, CellTiter-Glo (Example 21); type: cell-based, human; details: 72 h treatment
Procedure, shortened: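 MDA-MB-231 breast adenocarcinoma cells were seeded at 1500 cells/well in flat-bottomed white 96 well plates (BRANDplates®, cat. no.: 781965). Following compound exposure, viability was assessed with the CellTiter-Glo® luminescent assay (Promega) following the manufacturer's protocol, and luminescence was read on a BioTek Synergy 2 Multi-Mode Reader.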

[11] = test system: MDA-MB-453 (breast, carcinoma) cells; assay: Cell viability assay, CellTiter-Glo (Example 21); type: cell-based, human; details: 72 h treatment
Procedure, shortened: as §1

[12] = test system: MIA PaCa-2 (pancreas, carcinoma) cells; assay: Cell viability assay, CellTiter-Glo (Example 21); type: cell-based, human; details: 72 h treatment
Procedure, shortened: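 MIA PaCa-2 pancreatic carcinoma cells were seeded at 1000 cells/well in flat-bottomed white 96 well plates (BRANDplates®, cat. no.: 781965) and treated with compound. Viability was then determined with the CellTiter-Glo® luminescent cell viability assay (Promega) following the manufacturer's instructions, with luminescence read on a BioTek Synergy 2 Multi-Mode Reader.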

[13] = test system: PC-3 (prostate, adenocarcinoma) cells; assay: Cell viability assay, CellTiter-Glo (Example 21); type: cell-based, human; details: 72 h treatment
Procedure, shortened: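 PC-3 prostate adenocarcinoma cells were seeded at 1000 cells/well in flat-bottomed white 96 well plates and treated with compounds. Viability was then determined with the CellTiter-Glo® luminescent assay (Promega) following the manufacturer's instructions, with luminescence read on a BioTek Synergy 2 Multi-Mode Reader.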

[14] = test system: Panc-1 (pancreas, carcinoma) cells; assay: Cell viability assay, CellTiter-Glo (Example 21); type: cell-based, human; details: 72 h treatment
Procedure, shortened: as §1

[15] = test system: SCC-25 (tongue, squamous cell carcinoma) cells; assay: Cell viability assay, CellTiter-Glo (Example 21); type: cell-based, human; details: 72 h treatment
Procedure, shortened: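 SCC-25 tongue squamous cell carcinoma cells were seeded at 1000 cells/well in flat-bottomed white 96 well plates, treated with compound, and viability was then determined with the CellTiter-Glo luminescent assay (Promega) following the manufacturer's instructions. Luminescence was read on a BioTek Synergy 2 Multi-Mode Reader.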

[N-]=[N+]=Nc1ccc(CN2C(=O)C3=C(CCN(Cc4cc(F)cc(F)c4)C3)N3CCN=C23)cc1 [I/107, 4-(4-Azidobenzyl)-7-(3,5-difluorobenzyl)-2,4,6,7,8,9-hexahydroimidazo[1,2-a]pyrido[3,4-e]pyrimidin-5(1H)-one]
pIC50 [1]: 7.96 | pIC50 [2]: > 7.00 | pIC50 [3]: > 7.00 | Capan-1 (pancreas, adenocarcinoma) cell viability (% of control) ([4]; 3.7 nM): 103.5 ± 3.0 % of control | Capan-1 (pancreas, adenocarcinoma) cell viability (% of control) ([4]; 11.1 nM): 101.2 ± 5.2 % of control | Capan-1 (pancreas, adenocarcinoma) cell viability (% of control) ([4]; 100 nM): 37.6 ± 2.3 % of control | Capan-1 (pancreas, adenocarcinoma) cell viability (% of control) ([4]; 300 nM): 34.7 ± 2.9 % of control | DU 145 cell viability ([5]; 3.7 nM): 101.2 ± 6.5 % of control | DU 145 cell viability ([5]; 11.1 nM): 48.7 ± 1.7 % of control | DU 145 cell viability ([5]; 100 nM): 8.3 ± 2.9 % of control | DU 145 cell viability ([5]; 300 nM): 9.0 ± 2.9 % of control | Detroit 562 (pharynx, carcinoma) cell viability (% of control) ([6]; 3.7 nM): 86.6 ± 5.7 % of control | Detroit 562 (pharynx, carcinoma) cell viability (% of control) ([6]; 11.1 nM): 36.8 ± 5.1 % of control | Detroit 562 (pharynx, carcinoma) cell viability (% of control) ([6]; 100 nM): 31.4 ± 2.9 % of control | Detroit 562 (pharynx, carcinoma) cell viability (% of control) ([6]; 300 nM): 34.1 ± 6.5 % of control | EBC-1 (lung, squamous cell carcinoma) cell viability (% of control) ([7]; 3.7 nM): 99.9 ± 2.5 % of control | EBC-1 (lung, squamous cell carcinoma) cell viability (% of control) ([7]; 11.1 nM): 70.3 ± 0.9 % of control | EBC-1 (lung, squamous cell carcinoma) cell viability (% of control) ([7]; 100 nM): 23.5 ± 1.0 % of control | EBC-1 (lung, squamous cell carcinoma) cell viability (% of control) ([7]; 300 nM): 23.5 ± 2.5 % of control | FaDu (pharynx, squamous cell carcinoma) cell viability (% of control) ([8]; 3.7 nM): 98.6 ± 1.9 % of control | FaDu (pharynx, squamous cell carcinoma) cell viability (% of control) ([8]; 11.1 nM): 74.3 ± 4.2 % of control | FaDu (pharynx, squamous cell carcinoma) cell viability (% of control) ([8]; 100 nM): 24.6 ± 3.6 % of control | FaDu (pharynx, squamous cell carcinoma) cell viability (% of control) ([8]; 300 nM): 25.5 ± 4.3 % of control | LNCaP cell viability ([9]; 3.7 nM): 95.3 ± 2.3 % of control | LNCaP cell viability ([9]; 11.1 nM): 37.9 ± 3.3 % of control | LNCaP cell viability ([9]; 100 nM): 13.5 ± 0.7 % of control | LNCaP cell viability ([9]; 300 nM): 13.6 ± 0.6 % of control | MDA-MB-231 (breast, adenocarcinoma) cell viability (% of control) ([10]; 3.7 nM): 102.1 ± 3.5 % of control | MDA-MB-231 (breast, adenocarcinoma) cell viability (% of control) ([10]; 11.1 nM): 98.6 ± 0.8 % of control | MDA-MB-231 (breast, adenocarcinoma) cell viability (% of control) ([10]; 100 nM): 57.3 ± 1.8 % of control | MDA-MB-231 (breast, adenocarcinoma) cell viability (% of control) ([10]; 300 nM): 55.7 ± 0.9 % of control | MDA-MB-453 (breast, carcinoma) cell viability (% of control) ([11]; 3.7 nM): 107.2 ± 9.1 % of control | MDA-MB-453 (breast, carcinoma) cell viability (% of control) ([11]; 11.1 nM): 47.8 ± 6.2 % of control | MDA-MB-453 (breast, carcinoma) cell viability (% of control) ([11]; 100 nM): 32.3 ± 1.3 % of control | MDA-MB-453 (breast, carcinoma) cell viability (% of control) ([11]; 300 nM): 32.2 ± 1.3 % of control | MIA PaCa-2 (pancreas, carcinoma) cell viability (% of control) ([12]; 3.7 nM): 102.5 ± 5.4 % of control | MIA PaCa-2 (pancreas, carcinoma) cell viability (% of control) ([12]; 11.1 nM): 91.5 ± 6.6 % of control | MIA PaCa-2 (pancreas, carcinoma) cell viability (% of control) ([12]; 100 nM): 18.8 ± 6.2 % of control | MIA PaCa-2 (pancreas, carcinoma) cell viability (% of control) ([12]; 300 nM): 17.4 ± 7.1 % of control | PC-3 (prostate, adenocarcinoma) cell viability (% of control) ([13]; 3.7 nM): 107.1 ± 5.9 % of control | PC-3 (prostate, adenocarcinoma) cell viability (% of control) ([13]; 11.1 nM): 82.3 ± 7.0 % of control | PC-3 (prostate, adenocarcinoma) cell viability (% of control) ([13]; 100 nM): 32.7 ± 2.6 % of control | PC-3 (prostate, adenocarcinoma) cell viability (% of control) ([13]; 300 nM): 32.8 ± 4.1 % of control | Panc-1 (pancreas, carcinoma) cell viability (% of control) ([14]; 3.7 nM): 107.9 ± 11.5 % of control | Panc-1 (pancreas, carcinoma) cell viability (% of control) ([14]; 11.1 nM): 93.6 ± 8.1 % of control | Panc-1 (pancreas, carcinoma) cell viability (% of control) ([14]; 100 nM): 54.2 ± 0.6 % of control | Panc-1 (pancreas, carcinoma) cell viability (% of control) ([14]; 300 nM): 55.0 ± 3.2 % of control | SCC-25 (tongue, squamous cell carcinoma) cell viability (% of control) ([15]; 3.7 nM): 97.3 ± 3.8 % of control | SCC-25 (tongue, squamous cell carcinoma) cell viability (% of control) ([15]; 11.1 nM): 75.6 ± 6.8 % of control | SCC-25 (tongue, squamous cell carcinoma) cell viability (% of control) ([15]; 100 nM): 35.4 ± 5.7 % of control | SCC-25 (tongue, squamous cell carcinoma) cell viability (% of control) ([15]; 300 nM): 42.4 ± 5.7 % of control

Reference: patent publication US20230295162A1 (EÖTVÖS LORÁND TUDOMÁNYEGYETEM, priority 2020, published 2023)
